Values quoted from earlier work as cited in patent publication US20250319118A1, “Prophylaxis and Treatment of Degraded Cartilage” (PhrixionLS, LLC, priority 2022, published 2025).

Tests used:
osteoarthritis [1] = conditions: for Limitations: clinical outcomes / OA symptoms: clinical trials, osteoarthritis
osteoarthritis [2] = conditions: viscosupplementation

For `C[C@H]1CN(C(=O)CC[C@@]2(C3CC3)NC(=O)NC2=O)CCN1c1cc(F)cc(F)c1` [GLPG1972, reference compound], the Efficacy versus placebo (osteoarthritis [1]; Phase-2 study) is listed as “No significant difference versus”.

For `C[S+](CC[C@H](N)C(=O)[O-])C[C@H]1O[C@@H](n2cnc3c(N)ncnc32)[C@H](O)[C@@H]1O` (some centres unmarked) [S-adenosyl-methionine (SAMe), S-adenosyl-methionine], the “Limitations: clinical outcomes / OA symptoms” value (osteoarthritis [1]; literature summary) is listed as “Shown to improve OA symptoms,”.

For hyaluronic acid [HA], the “Benefit compared to placebo” value (osteoarthritis [2]) is listed as “no significant benefit compared to placebo”.

For Bromelain, the “Limitations: clinical outcomes / OA symptoms” value (osteoarthritis [1]; literature summary) is given as “Mixed results in clinical trials,”.

B1: Sprifermin: Drug (Trial), investigated as disease-modifier for cartilage damage (protein, UniProt O76093 28-207, looked up)
Fibroblast growth factor 18: EENVDFRIHVENQTRARDDVSRKQLRLYQLYSRTSGKHIQVLGRRISARGEDGDKYAQLLVETDTFGSQVRIKGKETEFYLCMNRKGKLVGKPDGTSKECVFIEKVLENNYTALMSAKYSGWYVGFTKKGRPRKGPKTRENQQDVHFMKRYPKGQPELQKPFKYTTVTKRSRRIRPTHPA
In the case of B1, the “Limitations: effect on cartilage (regeneration / protection)” value (osteoarthritis [1]; clinical and preclinical data, literature summary) is listed as “Demonstrated positive effects”.
